Results reported in patent US12453709B2, “Compositions and methods for treating autism” (priority 2013, dated 2025).

Tested on: male patients diagnosed with autism
Assay: Study HT 02-121: Social Responsiveness Scale (SRS-2)
Type: in vivo, human
Conditions: for SRS-2 Total T-Score: patients changing category of severity: placebo 2; for SRS-2 DSM-5 Social, Communication and Interaction T-score: patients with changes in severity categorization / SRS-2 Social Communication T-score: patients with categorical improvement / SRS-2 Social Motivation T-score: patients with categorical changes in clinical severity: placebo 3
Experimental: This clinical study was a randomized double-blind, placebo-controlled two-cohort, 4-week dose-escalation study that incorporated two open-label treatment groups to assess the safety and efficacy of L1-79 100 mg and 200 mg TID in male patients between the ages of […] years of age diagnosed with autism. The first cohort of 20 patients was comprised of three groups of patients: The first group of five patients received open-label L1-79 100 mg TID and underwent PK and EKG assessments. The remaining two groups in this cohort consisted of 15 patients randomized on a 2:1 basis to receive L1-79 100 mg TID or placebo. The PK and safety data from the open-label L1-79 100 mg TID group was submitted to FDA for review and acceptance before the second cohort was enrolled. The second cohort was procedurally identical to the first. The second cohort of 20 patients was comprised of the same three groups of patients but a dose of 200 mg TID was used instead of 100 mg TID. The key inclusion criteria were as follows: (1) males between 13 and 21 years of age, (2) DSM-5 compliant diagnosis of autism spectrum disorder, confirmed by the Autistic Diagnosis Interview Review (ADIR), and by an ADOS-2 score consistent with a diagnosis of autism, (3) must have been stable on no more than one concomitant medication and no planned changes in psychosocial interventions during the study.
The primary efficacy endpoint was the determination of the clinical improvement by the investigator as documented by the Clinical Global Impression (CGI) rating scales. Additional efficacy endpoints included: (1) changes from baseline in the Socialization and Communication Domains of the Vineland Adaptive Behavior Scales, Second Edition (VABS II) parent/caregiver rating form, (2) changes from baseline in the ADOS-2 Total Score and subscores, (3) changes in the Social Responsiveness Scale, Second Edition (SRS-2) Total Score and subscales, (4) changes in the ABC-C domains, (5) changes in the Repetitive Behavior Scale-Revised (RBS-R) Total Score and subscales. Given the exploratory design of this study only descriptive statistics were planned.
In the preliminary study, all forms were completed at the study site in the presence of the investigator. In Cohort 1 of the present study, the VABS-II, SRS-2, ABC-C and RBS-R were filled out at home by the patient/patient's families prior to treatment visits and returned at treatment visits in order to expedite the execution of the study.
This definition is consistent with accepted standards for judging mid and long term outcomes for experimental treatments studied in nearly every disorder, including autism. […] In ASD, children often go through periods of mild to moderate improvement or worsening in their behavioral, social and emotional symptom regulation related to a variety of identifiable and as yet unidentified factors (Boso, 2010; Jyonouchi, 2011). Thus, in a study of short duration, a ‘baseline’ measure may in fact be at the apex, midpoint or nadir of one of these oscillations.
The Social Communication and Interaction scale are comprised of the DSM-5 criteria that make up the social communication and social interaction deficits required for the diagnosis of ASD.

## CC(N)(Cc1ccc(O)cc1)C(=O)O (racemic) [L1-79, α-methyl-DL-tyrosine]
100 mg group
  SRS-2 Total T-Score: patients changing category of severity: 2 patients
  SRS-2 DSM-5 Social, Communication and Interaction T-score: patients with changes in severity categorization: 2 patients
  SRS-2 Social Communication T-score: patients with categorical improvement: 3 patients
  SRS-2 Social Motivation T-score: patients with categorical changes in clinical severity: 4 patients
200 mg group
  SRS-2 Total T-Score: patients changing category of severity: 3 patients
  SRS-2 DSM-5 Social, Communication and Interaction T-score: patients with changes in severity categorization: 4 patients
  SRS-2 Social Communication T-score: patients with categorical improvement: 4 patients
  SRS-2 Social Motivation T-score: patients with categorical changes in clinical severity: 6 patients
DB 100 mg TID, Week 4/LOCF
  SRS-2 DSM-5 Restricted and Repetitive Behavior T-score Mean Change from Baseline: −0.4
  SRS-2 DSM-5 Restricted and Repetitive Behavior T-score Treatment effect versus placebo: 7.2
  SRS-2 DSM-5 Restricted and Repetitive Behavior T-score change, median: −3, 0, 5
  SRS-2 DSM-5 Social, Communication and Interaction T-score Mean Change from Baseline: 0.6
  SRS-2 DSM-5 Social, Communication and Interaction T-score Treatment effect versus placebo: 4.8
  SRS-2 DSM-5 Social, Communication and Interaction T-score change, median: −3, 2, 5
  SRS-2 Social Communication T-score Mean Change from Baseline: 1.1
  SRS-2 Social Communication T-score Treatment effect versus placebo: 6.0
  SRS-2 Social Communication T-score change, median: −5, 0, 6
  SRS-2 Social-Motivation T-score Mean Change from Baseline: −1.4
  SRS-2 Social-Motivation T-score Treatment effect versus placebo: 0.3
  SRS-2 Social-Motivation T-score change, median: −7, −4, 8
  SRS-2 Total T-score Mean Change from Baseline: −0.4
  SRS-2 Total T-score Treatment effect versus placebo: 4.8
  SRS-2 Total T-score change, median: −3, −1, 3
DB 200 mg TID, Week 4/LOCF
  SRS-2 DSM-5 Restricted and Repetitive Behavior T-score Mean Change from Baseline: −7.6
  SRS-2 DSM-5 Restricted and Repetitive Behavior T-score Treatment effect versus placebo: −0.0
  SRS-2 DSM-5 Restricted and Repetitive Behavior T-score change, median: −22, −3, 3
  SRS-2 DSM-5 Social, Communication and Interaction T-score Mean Change from Baseline: −7.6
  SRS-2 DSM-5 Social, Communication and Interaction T-score Treatment effect versus placebo: −3.4
  SRS-2 DSM-5 Social, Communication and Interaction T-score change, median: −18, −3, 0
  SRS-2 Social Communication T-score Mean Change from Baseline: −8.3
  SRS-2 Social Communication T-score Treatment effect versus placebo: −3.4
  SRS-2 Social Communication T-score change, median: −16, −4, −1
  SRS-2 Social-Motivation T-score Mean Change from Baseline: −10.6
  SRS-2 Social-Motivation T-score Treatment effect versus placebo: −8.9
  SRS-2 Social-Motivation T-score change, median: −21, −6, 0
  SRS-2 Total T-score Mean Change from Baseline: −7.7
  SRS-2 Total T-score Treatment effect versus placebo: −2.5
  SRS-2 Total T-score change, median: −19, 3, 0
L1-79 200 mg treated group
  average improvement of SRS-2 Total, DSM-5 Social Communication and Interaction, Social Communication and Social Motivation T-scores: ~8 points
L1-79 200 mg, Week 4/LOCF
  SRS-2 T-scores: magnitude and number/percent of responders compared to placebo: greater
